The subject of test [1] is P. vivax and P. falciparum. The note with it: 2099 cases of malaria (P. vivax and P. falciparum about 3:1), different dosage forms; cited from earlier work.
In the next test the test system is P388 leukemia. Particulars: NCI Report on NSC 369397, tested on 25 Oct. 1983; cited from earlier work.
The test system of test [2] is chloroquine-sensitive P. falciparum (NF54). Kind of test: in vitro antimalarial activity, [3H]hypoxanthine incorporation. The test is classed as cell-based. Particulars: Plasmodium falciparum. The text has this:
To determine the antimalarial effect of the disclosed trioxane sulfur dimer compounds of Formula I, screening assays may be performed against chloroquine-sensitive P. falciparum (NF54). Using the methods described below, the IC50 values of these compounds may be determined.
Antimalarial activity may be determined by measuring the incorporation of [^3H]hypoxanthine by the methods of DesJardins and Milhous with the following modifications, see Desjardins, R. E.; Canfield, C. J.; Haynes, J. D.; Chulay, J. D., Antimicrob. Agents Chemother., 16:710 (1979); Milhous, W. K.; Weatherly, N. F.; Bowdre, J. H.; Desjardins, R., Antimicrob. Agents Chemother., 27:525 (1985). […]
Stock solutions (approximately 2.5 mg/mL of HPLC-purified or recrystallized test compound) are prepared in dimethyl sulfoxide (DMSO; Sigma-Aldrich #27,043-1). […] Cells may be harvested (Brandel MB-48R) onto GF-C glass filters (Brandel), and the filters washed five times with 3 mL water per sample spot, dried under a heat lamp, and counted (Beckman Model LS-6500) in scintillation cocktail (ICN Cytoscint).
Decays per minute (dpm) values may be downloaded and analyzed (Power Macintosh 7200/90; Microsoft Excel 5.0), to yield the mean and standard deviation at each drug concentration. […]

Test [3] concerns human HeLa cervical cancer cells. Particulars: human HeLa cervical cancer cells in vitro; cited from earlier work.

For the compound `C[C@@H]1CC[C@H]2[C@@H](C)C(=O)O[C@@H]3O[C@]4(C)CC[C@@H]1[C@]32OO4` [artemisinin], the clinical outcome in test [1] is on record as “clinical cure of all patients”. In addition, the “activity against P388 leukemia” value in the test on P388 leukemia is “inactive”. The IC50 – broadly, the concentration that inhibits the measured activity by half – in test [2] came to 0.0077 µM.
Turning to `C[C@@H]1CC[C@H]2[C@@H](C)C(O)O[C@@H]3O[C@]4(C)CC[C@@H]1[C@]32OO4` (stereo partly shown) [dihydroartemisinin], the IC50 in test [3] was 5 to 10 µM.

Source of the values: patent US8592611B2, “Trioxane dimer sulfur compounds” (The Johns Hopkins University, priority 2008, dated 2013).
